The NIST ThermoML archive (doi:10.1021/je050175u)
Values joined by “and” are separate entries in the source; they are usually repeats but may differ in a detail not shown here. Equal values may be shown once.

Test: excess molar enthalpy (molar enthalpy of mixing); xn = mol fraction of the nth substance listed
Conditions: Liquid, Flow calorimetry

COC(C)=O [methyl ethanoate] + CCCCCO
excess molar enthalpy [kcal/mol]
Conditions	298.15 K	308.15 K
5000 kPa, x1 = 0.049	0.0821	–
5000 kPa, x1 = 0.1	0.157	–
5000 kPa, x1 = 0.15	0.22	–
5000 kPa, x1 = 0.2	0.273	–
5000 kPa, x1 = 0.249	0.314	–
5000 kPa, x1 = 0.299	0.349	–
5000 kPa, x1 = 0.349	0.375	–
5000 kPa, x1 = 0.401	0.394	–
5000 kPa, x1 = 0.451	0.404	–
5000 kPa, x1 = 0.5	0.407	–
5000 kPa, x1 = 0.55	0.403	–
5000 kPa, x1 = 0.599	0.391	–
5000 kPa, x1 = 0.65	0.371	–
5000 kPa, x1 = 0.749	0.31	–
5000 kPa, x1 = 0.801	0.264	–
5000 kPa, x1 = 0.85	0.213	–
5000 kPa, x1 = 0.901	0.15	–
5000 kPa, x1 = 0.95	0.08	–
10000 kPa, x1 = 0.049	0.0827	–
10000 kPa, x1 = 0.051	–	0.0858
10000 kPa, x1 = 0.099	0.158	0.162
10000 kPa, x1 = 0.15	0.221	0.223
10000 kPa, x1 = 0.199	0.273	0.281
10000 kPa, x1 = 0.248	0.315	–
10000 kPa, x1 = 0.251	–	0.325
10000 kPa, x1 = 0.299	0.35	0.361
10000 kPa, x1 = 0.348	0.375	–
10000 kPa, x1 = 0.351	–	0.388
10000 kPa, x1 = 0.4	0.394	0.406
10000 kPa, x1 = 0.45	0.404	0.418
10000 kPa, x1 = 0.499	0.407	0.419
10000 kPa, x1 = 0.55	0.403	0.415
10000 kPa, x1 = 0.599	0.391	0.402
10000 kPa, x1 = 0.649	0.371	0.382
10000 kPa, x1 = 0.701	–	0.351
10000 kPa, x1 = 0.748	0.309	–
10000 kPa, x1 = 0.752	–	0.316
10000 kPa, x1 = 0.8	0.263	0.272
10000 kPa, x1 = 0.85	0.21	0.22
10000 kPa, x1 = 0.901	0.146	0.152
10000 kPa, x1 = 0.95	0.0747	0.0782

COC(C)=O [methyl ethanoate] + CCCCO
excess molar enthalpy [kcal/mol]
Conditions	5000 kPa	10000 kPa
298.15 K, x1 = 0.05	0.0776	0.077
298.15 K, x1 = 0.1	0.145	0.144
298.15 K, x1 = 0.149	0.201	0.2
298.15 K, x1 = 0.199	0.248	–
298.15 K, x1 = 0.201	–	0.249
298.15 K, x1 = 0.249	0.287	–
298.15 K, x1 = 0.251	–	0.288
298.15 K, x1 = 0.3	0.32	0.318
298.15 K, x1 = 0.349	0.343	–
298.15 K, x1 = 0.351	–	0.343
298.15 K, x1 = 0.399	0.359	–
298.15 K, x1 = 0.401	–	0.36
298.15 K, x1 = 0.449	–	0.369
298.15 K, x1 = 0.45	0.37	–
298.15 K, x1 = 0.5	–	0.372
298.15 K, x1 = 0.501	0.372	–
298.15 K, x1 = 0.549	–	0.368
298.15 K, x1 = 0.55	0.368	–
298.15 K, x1 = 0.599	–	0.358
298.15 K, x1 = 0.6	0.359	–
298.15 K, x1 = 0.65	–	0.34
298.15 K, x1 = 0.651	0.341	–
298.15 K, x1 = 0.699	0.316	–
298.15 K, x1 = 0.701	–	0.314
298.15 K, x1 = 0.751	0.284	0.284
298.15 K, x1 = 0.8	–	0.244
298.15 K, x1 = 0.801	0.244	–
298.15 K, x1 = 0.851	0.194	0.196
298.15 K, x1 = 0.899	0.141	0.141
298.15 K, x1 = 0.951	0.0726	0.0726
308.15 K, x1 = 0.047	–	0.0732
308.15 K, x1 = 0.098	–	0.147
308.15 K, x1 = 0.146	–	0.208
308.15 K, x1 = 0.193	–	0.257
308.15 K, x1 = 0.243	–	0.301
308.15 K, x1 = 0.291	–	0.335
308.15 K, x1 = 0.343	–	0.363
308.15 K, x1 = 0.39	–	0.382
308.15 K, x1 = 0.44	–	0.395
308.15 K, x1 = 0.492	–	0.398
308.15 K, x1 = 0.541	–	0.396
308.15 K, x1 = 0.591	–	0.385
308.15 K, x1 = 0.641	–	0.369
308.15 K, x1 = 0.692	–	0.344
308.15 K, x1 = 0.744	–	0.309
308.15 K, x1 = 0.794	–	0.267
308.15 K, x1 = 0.896	–	0.158
308.15 K, x1 = 0.947	–	0.0845

CC(C)CO [2-methyl-1-propanol] + COC(C)=O
Conditions	excess molar enthalpy
298.15 K, 5000 kPa, x2 = 0.303	0.341 kcal/mol
298.15 K, 5000 kPa, x2 = 0.352	0.368 kcal/mol
298.15 K, 5000 kPa, x2 = 0.402	0.388 kcal/mol
298.15 K, 5000 kPa, x2 = 0.453	0.401 kcal/mol
298.15 K, 5000 kPa, x2 = 0.504	0.405 kcal/mol
298.15 K, 5000 kPa, x2 = 0.553	0.402 kcal/mol
298.15 K, 5000 kPa, x2 = 0.603	0.392 kcal/mol
298.15 K, 5000 kPa, x2 = 0.654	0.374 kcal/mol
298.15 K, 5000 kPa, x2 = 0.702	0.347 kcal/mol
298.15 K, 5000 kPa, x2 = 0.751	0.315 kcal/mol
298.15 K, 5000 kPa, x2 = 0.801	0.271 kcal/mol
298.15 K, 5000 kPa, x2 = 0.851	0.219 kcal/mol
298.15 K, 5000 kPa, x2 = 0.902	0.154 kcal/mol
298.15 K, 5000 kPa, x2 = 0.951	0.0827 kcal/mol
298.15 K, 10000 kPa, x2 = 0.049	0.0751 kcal/mol
298.15 K, 10000 kPa, x2 = 0.099	0.146 kcal/mol
298.15 K, 10000 kPa, x2 = 0.15	0.208 kcal/mol
298.15 K, 10000 kPa, x2 = 0.199	0.259 kcal/mol
298.15 K, 10000 kPa, x2 = 0.249	0.303 kcal/mol
298.15 K, 10000 kPa, x2 = 0.3	0.339 kcal/mol
298.15 K, 10000 kPa, x2 = 0.349	0.366 kcal/mol
298.15 K, 10000 kPa, x2 = 0.401	0.388 kcal/mol
298.15 K, 10000 kPa, x2 = 0.449	0.4 kcal/mol
298.15 K, 10000 kPa, x2 = 0.5	0.404 kcal/mol
298.15 K, 10000 kPa, x2 = 0.55	0.402 kcal/mol
298.15 K, 10000 kPa, x2 = 0.6	0.392 kcal/mol
298.15 K, 10000 kPa, x2 = 0.65	0.374 kcal/mol
298.15 K, 10000 kPa, x2 = 0.699	0.349 kcal/mol
298.15 K, 10000 kPa, x2 = 0.752	0.313 kcal/mol
298.15 K, 10000 kPa, x2 = 0.798	0.272 kcal/mol
298.15 K, 10000 kPa, x2 = 0.849	0.218 kcal/mol
298.15 K, 10000 kPa, x2 = 0.901	0.154 kcal/mol
298.15 K, 10000 kPa, x2 = 0.95	0.081 kcal/mol
308.15 K, 10000 kPa, x2 = 0.047	0.0714 kcal/mol
308.15 K, 10000 kPa, x2 = 0.098	0.148 kcal/mol
308.15 K, 10000 kPa, x2 = 0.146	0.213 kcal/mol
308.15 K, 10000 kPa, x2 = 0.193	0.266 kcal/mol
308.15 K, 10000 kPa, x2 = 0.243	0.314 kcal/mol
308.15 K, 10000 kPa, x2 = 0.291	0.352 kcal/mol
308.15 K, 10000 kPa, x2 = 0.343	0.383 kcal/mol
308.15 K, 10000 kPa, x2 = 0.39	0.404 kcal/mol
308.15 K, 10000 kPa, x2 = 0.492	0.426 kcal/mol and 0.423 kcal/mol
308.15 K, 10000 kPa, x2 = 0.541	0.424 kcal/mol
308.15 K, 10000 kPa, x2 = 0.591	0.415 kcal/mol
308.15 K, 10000 kPa, x2 = 0.641	0.398 kcal/mol
308.15 K, 10000 kPa, x2 = 0.692	0.371 kcal/mol
308.15 K, 10000 kPa, x2 = 0.744	0.335 kcal/mol
308.15 K, 10000 kPa, x2 = 0.794	0.291 kcal/mol
308.15 K, 10000 kPa, x2 = 0.896	0.168 kcal/mol
308.15 K, 10000 kPa, x2 = 0.947	0.0912 kcal/mol
